Test results reported in US10610517B2, “Compositions and methods for treating neoplastic diseases” (Celgene International II Sàrl, priority 2004, dated 2020).

How the values were obtained:
[1] = tested on: Bcl2-transfected MM.1S cells; assay: MTT viability of Bcl2-transfected MM.1S cells
Description: Bcl2 confers resistance to conventional therapies in cancer cells, including MM. […] Bcl2 can modestly attenuate Bortezomib-induced apoptosis. Thus, whether ectopic expression of Bcl2 in MM.1S cells affects responsiveness to the compound of formula (II) (X=Cl) was evaluated. MM.1S cells were stably transfected with Bcl2 construct and analyzed for alterations in cell viability using an MTT assay. […] Results are mean±SD of three independent experiments.
During apoptosis Bax neutralizes the antiapoptotic function of Bcl-2, thereby facilitating the cyto-c release and caspase-9 activation. Bcl-2 also confers drug resistance in cancer cells, including MM, and provides partial protection against Bortezomib-induced killing. Therefore, whether ectopic expression of Bcl-2 in MM.1S cells affects the ability of the compound of formula (II) or Bortezomib to trigger cytotoxicity and postmitochondrial apoptotic signaling in MM cells was evaluated.

[2] = tested on: Mouse embryonic fibroblast (MEFs); assay: MTT viability of MEFs with wild-type or knock-out Bax; assay type: cell-based; conditions: 48 h; FIG. 12F
Source text: Results are mean±SD of three independent experiments (P<0.05).

proteasome = proteasome (Homo sapiens, UniProt P28074); conditions: Goldberg & Rock 2002; Adams 2004; cited from earlier work
RPMI 8226 MM cells = assay type: in vivo, beige-nude-xid (BNX) mice; conditions: i.v. twice weekly (compound 0.15 mg/kg; Bortezomib 1.0 mg/kg)
[3] = tested on: Lymphocytes from five healthy donors; assay: MTT cytotoxicity on normal lymphocytes; conditions: human, 72 h
Source text: Bortezomib therapy is associated with toxicity in patients. […] Results are the mean±SD of three independent experiments.

[4] = molecular target: proteasome β-5, β-1, β-2 subunits in MM.1S cells (Homo sapiens, UniProt P28072+P28074+Q99436); assay type: cell-based; conditions: even higher doses; data not shown
Description: In vivo determination of proteasome activity was conducted using a competition experiment with Dansyl-Ahx3L3VS, which covalently modifies all active proteasome subunits. This inhibitor contains a dansyl sulfonamide hexanoyl hapten that can be visualized by immunoblotting using antibodies against the dansyl moiety. […] Cells were lysed by incubating them for 30 mins in NP-40 lysis buffer (50 mM Tris-HCl pH 8.0, 150 mM NaCl, 1% NP-40), followed by 5 min. centrifugation to remove membrane fractions, nuclei, and cell debris. […] Blots were developed by enhanced chemiluminescence (Western Lightning, Perkin-Elmer).

[5] = tested on: Chymotrypsin-like proteasome activity; assay type: cell-based, human; conditions: data not shown
Source text: (§1) Whether the compound of formula (II) or Bortezomib alters proteasome activity in normal lymphocytes and skin fibroblasts was also examined.

[6] = tested on: normal CCD-27sk fibroblasts; assay: cells; assay type: cell-based, human; conditions: Homo sapiens
Source text: as §1

MM.1S cells [7] = assay: cells
Source text: MM.1S cells were also transiently transfected using Cell line Nucleofecto kit V, according to the manufacturer's instructions (Amaxa Biosystems, Germany), with vector alone, DN-caspase-8, DN-caspase-9, or DN-FADD and cotransfected with vector containing green fluorescence protein (GFP) alone.
It was next determined whether inhibition of an upstream signaling pathway that leads to caspase-8 activation affects the response to the compound of formula (II) (X=Cl) or Bortezomib. The Fas-associated death domain (FADD) protein is an important part of the deathinducing signaling complexes (DISCs) that assemble upon engagement of TNF receptor family members, such as Fas, resulting in proteolytic processing and autoactivation of pro-caspase-8. Since both the compound of formula (II) (X=Cl) and Bortezomib trigger caspase-8 activation, the role of FADD during this event in MM cells was evaluated using DN-FADD.

Bax = assay: Immunoblot of Bax in mitochondrial protein extracts; assay type: cell-based, human; conditions: MM.1S cells; FIG. 12E
Description: Immunoblot analysis was performed using antibodies to cytochrome-c, Smac, Caspase-8, -9, or -3 (Cell Signaling, Beverly, Mass.), tubulin (Sigma, St. Louis, Mo.), PARP, Hsp60, or Bax (BD Bioscience Pharmingen, San Diego, Calif.). Blots were developed by enhanced chemiluminesence (ECL; Amersham, Arlington Heights, Ill.).
Previous studies have established that Bax induces mitochondrial apoptotic pathway. See Wei, M. C., Zong, W. X., Cheng, E. H., Lindsten, T., Panoutsakopoulou, V., Ross, A. J., Roth, K. A., MacGregor, G. R., Thompson, C. B. & Korsmeyer, S. J. (2001) Science 292, 727-30 and Lei, K., Nimnual, A., Zong, W. X., Kennedy, N. J., Flavell, R. A., Thompson, C. […] Thus, whether MM cell apoptosis induced by the compound of formula (II) (X=Cl) correlates with alterations in Bax was evaluated. […] Blots are representatives of three independent experiments.

MM.1S cells [8] = assay: MTT viability of MM.1S cells with or without rhIL-6 or rhIGF-I; assay type: cell-based, human; conditions: human, 24 h
Source text: Adhesion of MM cells to BMSCs induces IL-6 and IGF-I secretion from BMSCs, which not only regulates the growth of MM cells, but also protects against chemotherapy. See Hardin, J., MacLeod, S., Grigorieva, I., Chang, R., Barlogie, B., Xiao, H. & Epstein, J. (1994) Blood 84, 3063-70 and Chauhan, D., Kharbanda, S., Ogata, A., Urashima, M., Teoh, G., Robertson, M., Kufe, D. W. & Anderson, K. C. […] Thus, whether rhIL-6 or rhIGF-I inhibits apoptosis in MM cells induced by the compound of Formula (II) (X=Cl) was evaluated. […] At 24 h cells were harvested and viability analyzed by MTT assays. […] Median viability was 51±2.1% after treatment with Dex and 92±5.5% for Dex+rhIL-6 (P=0.05, as determined by one-sided Wilcoxon rank-sum test). Results are mean±SD of three independent experiments. […] In contrast and as in other studies, both IL-6 and IGF-I block Dex-induced decreased MM.1S cell viability. See Chauhan, D., Hideshima, T. & Anderson, K. C. (2003) Int J Hematol 78, 114-20 and Mitsiades, C. S., Mitsiades, N., Poulaki, V., Schlossman, R., Akiyama, M., Chauhan, D., Hideshima, T., Treon, S. P., Munshi, N. C., Richardson, P. G. & Anderson, K. C.

Chain of proteasome (P28074 60-263): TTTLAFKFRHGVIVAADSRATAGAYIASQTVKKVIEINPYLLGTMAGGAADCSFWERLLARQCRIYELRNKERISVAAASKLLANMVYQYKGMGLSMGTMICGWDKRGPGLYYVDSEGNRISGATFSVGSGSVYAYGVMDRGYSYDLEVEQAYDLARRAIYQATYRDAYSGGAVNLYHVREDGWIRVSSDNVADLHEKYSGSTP

SMILES | increased survival of Bcl-2 transfectants ([1]; Bcl-2- versus vector-transfected, FIG. 14A) | decrease of caspase-9 cleavage in Bcl-2-transfected cells by densitometry ([1]; versus vector-transfected cells, FIG. 14B) | cell viability in Bax (WT) and Bax (knock-out) MEFs [2] | proteasome activities inhibited (proteasome) | tumor progression (RPMI 8226 MM cells; p<0.01) | survival (RPMI 8226 MM cells; p=0.0137) | decrease in viability of normal lymphocytes [3] | inhibition of the β-2 subunits [4] | inhibition of Chymotrypsin-like proteasome activity ([5]; 20 nM) | proteasome activity in CCD-27sk fibroblasts ([5]; treatment at the IC50) | IC50 [6] | increase in survival of DN-FADD-transfected compared to vector-transfected cells (MM.1S cells [7]; FIG. 12D) | IC50 (MM.1S cells [7]; Homo sapiens, MM1.S) | effect of caspase-8 blockade on triggered cell death (MM.1S cells [7]; IETD-fmk, FIG. 12A) | effect of caspase-9 inhibition on decreased viability (MM.1S cells [7]; LEHD-FMK, FIG. 12A) | survival of DN-caspase-8-transfected compared to DN-caspase-9-transfected cells (MM.1S cells [7]; treated at IC50, FIG. 12B) | effect of caspase-3 inhibition on induced apoptosis (MM.1S cells [7]; z-VAD-fmk, FIG. 12A) | Bax levels in mitochondria (Bax) | median cell viability (MM.1S cells [8])
CC(C)C[C@H](NC(=O)[C@H](Cc1ccccc1)NC(=O)c1cnccn1)B(O)O [Bortezomib, reference compound] | 21% | 3 fold | deletion of Bax confers significant resistance | inhibit only chymotrypsin-like proteasome activity | significantly reduced the tumor progression | prolonged survival | 50% | does not inhibit the β-2 subunits | 59±11% | inhibited proteasome activity | 15 nM | 16% | 5 nM | equally blocked | equally blocked | increased the survival to a similar extent | markedly abrogates | significant accumulation of Bax in mitochondria | 
C[C@@H]1C[C@H]2[C@@H]3CCC4=CC(=O)C=C[C@]4(C)[C@@]3(F)[C@@H](O)C[C@]2(C)[C@@]1(O)C(=O)CO [Dex, reference compound] |  |  |  |  |  |  |  |  |  |  |  |  |  |  |  |  |  |  | 51±2.1%
